The nature of the experiment: Kinetics of ascorbate consumption assay (ROS production). In kind it is biochemical. To be noted: MT-2 + Cu2+ + Asc; [MT-2] = 1.6 μM, [Cu2+] = 9 μM, [Asc] = 100 μM, HEPES 10 mM pH = 7.4, absorbance at 265 nm. The method, then:
Reagents, except the peptoid and protein, were commercially available and were used as received. All the solutions were prepared in milliQ water (resistance: 18.2 MΩ) immediately before experiments. A stock solution of HEPES buffer was prepared at 500 mm, pH = 7.4, and then diluted to 10 mM. Sodium ascorbate was prepared at 5 mm each day because of the quick degradation of the ascorbate. All pH values are given with a ±0.2 pH unit error. UV/Vis kinetics and ROS kinetic experiments were recorded with a spectrophotometer Agilent Cary 60 UV/Vis spectrophotometer (Agilent Technologies, Mulgrave, Australia), a double-beam, Czerny–Turner monochromator with external stirrer of cuvette holder, in 1 cm path-length quartz cuvettes, with 800 rpm stirring. The samples were prepared from stock solutions of MT-2, TB, Cu^2+, diluted to 1.6, 10, and 9 µM, respectively, in 10 mM HEPES solution, pH = 7.4. Ascorbate was diluted to 100 µM. […]
First, we investigated whether CuTB can produce ROS by itself. In a typical experiment, 1 equiv. of TB was mixed with 0.9 equiv. of Cu^2+ in HEPES buffer (10 mM, pH = 7.4) in a quartz cuvette under aerobic conditions, and after the formation of the metallopeptoid was confirmed by the stability of its UV/Vis spectrum, sodium ascorbate (Asc) was added to the cuvette and the changes in the absorbance at 265 nm were monitored by UV/Vis (ε = 14,500 M^−1 cm^−1). […]

In the case of “CuMT-2: complex of metallothionein-2 (MT-2) with 6 equiv. of Cu2+”, the “ascorbate consumption / redox activity” value is listed as “redox silent”.

(Values after paper PMC10741037, “A Peptoid-Chelator Selective to Cu^2+ That Can Extract Copper from Metallothionein-2 and Lead to the Production of ROS” (Antioxidants, 2023).)
